Test results: patent publication US9840508B2, “N-acyl-(3-substituted)-(8-methyl)-5,6-dihydro-[1,2,4]triazolo[4,3-a] pyrazines as selective NK-3 receptor antagonists, pharmaceutical composition, methods for use in NK-3 receptor-mediated disorders” (EUROSCREEN SA, priority 2013, dated 2017)
Where two headings read alike, the source gives them in different places.

Legend:
human NK-3 receptor [1] = target: T1, human NK-3 receptor (Homo sapiens (Human), UniProt P29371); experiment: 3H-SB222200 binding competition assay with human NK-3 receptor
Procedure: The affinity of compounds of the invention for the human NK-3 receptor was determined by measuring the ability of compounds of the invention to competitively and reversibly displace a well-characterized NK-3 radioligand in a concentration-dependent manner.
^3H-SB222200 Binding Competition Assay with Human NK-3 Receptor
The ability of compounds of the invention to inhibit the binding of the NK-3 receptor selective antagonist ^3H-SB222200 was assessed by an in vitro radioligand binding assay. Membranes were prepared from Chinese hamster ovary recombinant cells stably expressing the human NK-3 receptor. The membranes were incubated with 5 nM ^3H-SB222200 (ARC) in a HEPES 25 mM/NaCl 0.1M/CaCl2 1 mM/MgCl2 5 mM/BSA 0.5%/Saponin 10 μg/ml buffer at pH 7.4 and various concentrations of compounds of the invention. The amount of ^3H-SB222200 bound to the receptor was determined after filtration by the quantification of membrane associated radioactivity using the TopCount-NXT reader (Packard).

human NK-3 receptor [2] = target: T1, human NK-3 receptor; experiment: Aequorin functional assay with human NK-3 receptor (antagonist testing); assay type: cell-based; conditions: CHO cells expressing human NK-3 receptor; agonist NKA at EC80 (3 nM); read-out: Functional assay: Aequorin assay with human NK-3 receptor hNK-3 - AEQ (antagonist IC50)
Procedure: Aequorin Assay with Human NK-3 Receptor
Changes in intracellular calcium levels are a recognized indicator of G protein-coupled receptor activity. The efficacy of compounds of the invention to inhibit NKA-mediated NK-3 receptor activation was assessed by an in vitro Aequorin functional assay. Chinese Hamster Ovary recombinant cells expressing the human NK-3 receptor and a construct that encodes the photoproteinapoaequorin were used for this assay. In the presence of the cofactor coelenterazine, apoaequorin emits a measurable luminescence that is proportional to the amount of intracellular (cytoplasmic) free calcium.
The antagonist activity of compounds of the invention is measured following pre-incubation (3 minutes) of the compound (at various concentrations) with the cells, followed by addition of the reference agonist (NKA) at a final concentration equivalent to the EC80 (3 nM) and recording of emitted light (FDSS 6000 Hamamatsu) over the subsequent 90-second period. The intensity of the emitted light is integrated using the reader software. Compound antagonist activity is measured based on the concentration-dependent inhibition of the luminescence response to the addition of Neurokinin A.
The IC50 values shown in Table 2 indicate that compounds of the invention are potent NK-3 antagonist compounds.

human NK-1 receptor = human NK-1 receptor (Homo sapiens (Human), UniProt P25103); experiment: Selectivity binding assay, human NK-1 ([3H] substance P); conditions: CHO cell membranes; 2 nM [3H] substance P; read-out: hNK-1 (Ki)
Procedure: (§1) Selectivity of the compounds of the invention was determined over the other human NK receptors, namely NK-1 and NK-2 receptors.
The affinity of compounds of the invention for the NK-1 receptor was evaluated in CHO recombinant cells which express the human NK-1 receptor. Membrane suspensions were prepared from these cells. The following radioligand: [^3H] substance P (PerkinElmer Cat#NET111520) was used in this assay. Binding assays were performed in a 50 mM Tris/5 mM MnCl2/150 mM NaCl/0.1% BSA at pH 7.4. Binding assays consisted of 25 μl of membrane suspension (approximately 5 μg of protein/well in a 96 well plate), 50 μl of compound or reference ligand (Substance P) at increasing concentrations (diluted in assay buffer) and 2 nM [^3H] substance P. The plate was incubated 60 min at 25° C. in a water bath and then filtered over GF/C filters (Perkin Elmer, 6005174, presoaked in 0.5% PEI for 2 h at room temperature) with a Filtration unit (Perkin Elmer). The radioactivity retained on the filters was measured by using the TopCount-NXT reader (Packard). Competition curves were obtained for compounds of the invention and the concentrations of compounds which displaced 50% of bound radioligand (IC50) were determined and then apparent inhibition constant Ki values were calculated by the following equation: Ki=IC50/(1+[L]/KD) where [L] is the concentration of free radioligand and KD is its dissociation constant at the receptor, derived from saturation binding experiments (Cheng and Prusoff, 1973).

plasma protein = experiment: Determination of plasma protein binding (rapid equilibrium dialysis); assay type: in vitro ADME; conditions: 4 hours at 37° C.
Description: Determination of Plasma Protein Binding
The pharmacokinetic and pharmacodynamic properties of chemicals/drugs are largely a function of the reversible binding of chemicals to plasma or serum proteins. Generally, only the unbound or “free fraction” of a drug is available for diffusion or transport across cell membranes, and for interaction with a pharmacological/toxicological target. Consequently, the extent of the plasma protein binding (PPB) of a compound influences its action as well as its distribution and elimination.
The determination of plasma protein binding (PPB) of a compound is enabled by equilibrium dialysis, an accepted and standard method for reliable estimation of the non-bound drug fraction in plasma. RED (Rapid Equilibrium Dialysis) device insert is made of two side-by-side chambers separated by an O-ring-sealed vertical cylinder of dialysis membrane (MWCO˜8,000). Plasma containing drug (at 5 μM or blood concentrations otherwise corresponding to efficacious doses, if known) is added to one chamber while buffer is added to the second. After 4 hours incubation at 37° C. under shaking, an aliquot is removed from each chamber and analyzed by a LC-MS/MS procedure enables the determination of both free and bound drug.
The percentages provided in Table 4 represent for the compounds of the invention the bound drug fraction to the plasma protein. The “free fraction” may be calculated as 100%−% rPPB (i.e. the complementary percentage of that disclosed in Table 4, corresponding to the drug concentration that is unbound and therefore available to engage biological target and elicit pharmacological activity).

human NK-2 receptor = human NK-2 receptor (Homo sapiens (Human), UniProt P21452); experiment: Selectivity binding assay, human NK-2 ([125I]-Neurokinin A); conditions: CHO cell membranes; 0.1 nM [125I]-Neurokinin A; read-out: hNK-2 (Ki)
Procedure: as §1
The affinity of compounds of the invention for the NK-2 receptor was evaluated in CHO recombinant cells which express the human NK-2 receptor. Membrane suspensions were prepared from these cells. The following radioligand [^125I]-Neurokinin A (PerkinElmer Cat#NEX252) was used in this assay. Binding assays were performed in a 25 mM HEPES/1 mM CaCl2/5 mM MgCl2/0.5% BSA/10 μg/ml saponin, at pH 7.4. Binding assays consisted of 25 μl of membrane suspension (approximately 3.75 μg of protein/well in a 96 well plate), 50 μl of compound or reference ligand (Neurokinin A) at increasing concentrations (diluted in assay buffer) and 0.1 nM [^125I]-Neurokinin A. The plate was incubated 60 min at 25° C. in a water bath and then filtered over GF/C filters (Perkin Elmer, 6005174, presoaked in assay buffer without saponine for 2 h at room temperature) with a Filtration unit (Perkin Elmer). The radioactivity retained on the filters was measured by using the TopCount-NXT reader (Packard). Competition curves were obtained for compounds of the invention and the concentrations of compounds which displaced 50% of bound radioligand (IC50) were determined and then apparent inhibition constant Ki values were calculated by the following equation: Ki=IC50/(1+[L]/KD) where [L] is the concentration of free radioligand and KD is its dissociation constant at the receptor, derived from saturation binding experiments (Cheng and Prusoff, 1973).

[3] = CHO cell membranes, 5 nM 3H-SB222200, Table 2, read-out: Competitive binding assay with human NK-3 receptor hNK-3 (Ki)
[4] = Table 3 (selectivity table), read-out: hNK-3 (Ki)

T1 sequence (P29371 whole entry): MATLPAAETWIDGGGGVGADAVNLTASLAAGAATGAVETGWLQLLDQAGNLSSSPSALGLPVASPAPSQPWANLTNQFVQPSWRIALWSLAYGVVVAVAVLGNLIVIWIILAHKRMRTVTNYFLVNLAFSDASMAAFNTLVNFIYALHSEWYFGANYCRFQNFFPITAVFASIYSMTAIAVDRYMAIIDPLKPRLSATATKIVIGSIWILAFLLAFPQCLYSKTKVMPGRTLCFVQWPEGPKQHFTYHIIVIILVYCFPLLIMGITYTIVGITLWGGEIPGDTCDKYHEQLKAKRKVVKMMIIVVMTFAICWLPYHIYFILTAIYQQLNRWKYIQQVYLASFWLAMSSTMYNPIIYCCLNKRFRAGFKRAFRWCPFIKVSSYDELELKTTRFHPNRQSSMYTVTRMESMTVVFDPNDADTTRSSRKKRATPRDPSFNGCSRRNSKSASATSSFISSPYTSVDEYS
Sequence of human NK-1 receptor (P25103 whole entry): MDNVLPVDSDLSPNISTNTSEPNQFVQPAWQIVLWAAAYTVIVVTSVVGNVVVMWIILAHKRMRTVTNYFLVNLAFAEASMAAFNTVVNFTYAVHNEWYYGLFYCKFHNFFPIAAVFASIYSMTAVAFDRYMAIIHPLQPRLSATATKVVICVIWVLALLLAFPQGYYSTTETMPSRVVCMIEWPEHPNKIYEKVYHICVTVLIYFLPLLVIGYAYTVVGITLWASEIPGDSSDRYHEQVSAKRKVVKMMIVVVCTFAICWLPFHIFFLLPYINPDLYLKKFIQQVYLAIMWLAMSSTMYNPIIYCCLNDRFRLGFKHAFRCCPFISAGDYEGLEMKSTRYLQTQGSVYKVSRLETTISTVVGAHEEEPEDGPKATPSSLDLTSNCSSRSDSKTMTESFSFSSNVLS
Sequence of human NK-2 receptor (P21452 whole entry): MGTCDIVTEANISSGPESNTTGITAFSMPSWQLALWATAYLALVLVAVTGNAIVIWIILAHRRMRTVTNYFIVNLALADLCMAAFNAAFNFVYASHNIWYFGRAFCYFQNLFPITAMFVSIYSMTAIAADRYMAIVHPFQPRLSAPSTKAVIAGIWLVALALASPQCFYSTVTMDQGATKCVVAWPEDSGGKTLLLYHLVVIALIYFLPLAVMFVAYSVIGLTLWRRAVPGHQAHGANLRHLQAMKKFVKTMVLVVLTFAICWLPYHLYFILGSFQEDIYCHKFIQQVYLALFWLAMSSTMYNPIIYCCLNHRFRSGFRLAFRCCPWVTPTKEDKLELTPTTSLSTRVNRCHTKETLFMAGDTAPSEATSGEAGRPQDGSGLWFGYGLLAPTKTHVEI

Row | Compound | Ki (human NK-3 receptor [1]; [3]) [µM] | Ki (human NK-3 receptor [1]; [4]) [µM] | IC50 (human NK-3 receptor [2]) [µM] | Ki (human NK-1 receptor) [µM] | Exposure (% rPPB), bound drug fraction to the plasma protein (plasma protein) [%] | Ki (human NK-2 receptor) [µM]
1 | Cc1ccc(-c2nnc3n2CCN(C(=O)c2ccc(F)c(F)c2)[C@@H]3C)o1 [Compound 5, (R)-(3,4-difluorophenyl)(8-methyl-3-(5-methylfuran-2-yl)-5,6-dihydro-[1,2,4]triazolo[4,3-a]pyrazin-7(8H)-yl)methanone] | 0.042 | 0.042 | 0.052 | > 30 | 27 | 31
2 | C[C@@H]1c2nnc(-c3csc(C(F)(F)F)n3)n2CCN1C(=O)c1ccc(Cl)c(F)c1 [Compound 17, (R)-(4-chloro-3-fluorophenyl)(8-methyl-3-(2-(trifluoromethyl)thiazol-4-yl)-5,6-dihydro-[1,2,4]triazolo[4,3-a]pyrazin-7(8H)-yl)methanone] | 0.022 | 0.022 | 0.037 | 12 | 84 | 5.2
3 | C[C@@H]1c2nnc(-c3csc(C(F)(F)F)n3)n2CCN1C(=O)c1ccc(F)c(Cl)c1 [Compound 16, (R)-(3-chloro-4-fluorophenyl)(8-methyl-3-(2-(trifluoromethyl)thiazol-4-yl)-5,6-dihydro-[1,2,4]triazolo[4,3-a]pyrazin-7(8H)-yl)methanone] | 0.014 | 0.014 | 0.023 | 9.4 | 82 | 1.5
4 | C[C@@H]1c2nnc(-c3csc(C(F)(F)F)n3)n2CCN1C(=O)c1ccc(F)c(F)c1 [Compound 13, (R)-(3,4-difluorophenyl)(8-methyl-3-(2-(trifluoromethyl)thiazol-4-yl)-5,6-dihydro-[1,2,4]triazolo[4,3-a]pyrazin-7(8H)-yl)methanone] | 0.02 | 0.02 | 0.026 | 21 | 51 | 7
5 | Cc1ccc(-c2nnc3n2CCN(C(=O)c2ccc(F)c(F)c2F)[C@@H]3C)o1 [Compound 6, (R)-(8-methyl-3-(5-methylfuran-2-yl)-5,6-dihydro-[1,2,4]triazolo[4,3-a]pyrazin-7(8H)-yl)(2,3,4-trifluorophenyl)methanone] | 0.074 | 0.074 | 0.099 | > 30 | 37 | > 30
